Measured values reported in patent US20100298141A1, “SUBSTITUTED PYRIDINE N-OXIDE HERBICIDES” (E. I. DU PONT DE NEMOURS AND COMPANY, priority 2007, published 2010).

Experiments:
morningglory = assay: Test A pre-/postemergence greenhouse test; assay type: in vivo, Ipomoea spp.; settings: for Morningglory plant response rating: 0 to 100 scale; for Plant response rating, Morningglory: 0 to 100 scale where 0 is no effect and 100 is complete control
Method in brief: (§1)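 Visual injury ratings, made relative to untreated controls roughly ten days after treatment, cover both preemergence and postemergence application. Compounds in a surfactant-containing non-phytotoxic solvent were sprayed onto the soil surface after sowing and, simultaneously, onto young plants at the one- to two-leaf stage.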

velvetleaf = assay: Test A pre-/postemergence greenhouse test; assay type: in vivo, Abutilon theophrasti; settings: for Velvetleaf plant response rating: 0 to 100 scale; for Plant response rating, Velvetleaf: 0 to 100 scale where 0 is no effect and 100 is complete control
Method in brief: as §1

rice = assay: Test C flooded paddy test; assay type: in vivo, Oryza sativa; settings: Flood
Method in brief: (§2)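 Greenhouse pots flooded to 3 cm above soil at time of treatment received compound via the water, which stayed at that level.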

barnyardgrass [1] = assay: Test A pre-/postemergence greenhouse test; assay type: in vivo, Echinochloa crus-galli; settings: for Barnyardgrass plant response rating: 0 to 100 scale; for Plant response rating, Barnyardgrass: 0 to 100 scale where 0 is no effect and 100 is complete control
Method in brief: as §1

redroot pigweed = assay: Test A pre-/postemergence greenhouse test; assay type: in vivo, Amaranthus retroflexus; settings: for Pigweed plant response rating: 0 to 100 scale; for Plant response rating, Pigweed: 0 to 100 scale where 0 is no effect and 100 is complete control
Method in brief: as §1

wheat = assay: Test A pre-/postemergence greenhouse test; assay type: in vivo, Triticum aestivum; settings: for Wheat plant response rating: 0 to 100 scale; for Plant response rating, Wheat: 0 to 100 scale where 0 is no effect and 100 is complete control
Method in brief: as §1

corn = assay: Test A pre-/postemergence greenhouse test; assay type: in vivo, Zea mays; settings: for Corn plant response rating: 0 to 100 scale; for Plant response rating, Corn: 0 to 100 scale where 0 is no effect and 100 is complete control
Method in brief: as §1

umbrella sedge = assay: Test C flooded paddy test; assay type: in vivo, Cyperus difformis; settings: Flood
Method in brief: as §2

duck salad = assay: Test C flooded paddy test; assay type: in vivo, Heteranthera limosa; settings: Flood
Method in brief: as §2

giant foxtail = assay: Test A pre-/postemergence greenhouse test; assay type: in vivo, Setaria faberi; settings: for Foxtail, Giant plant response rating: 0 to 100 scale; for Plant response rating, Foxtail, Giant: 0 to 100 scale where 0 is no effect and 100 is complete control
Method in brief: as §1

crabgrass = assay: Test A pre-/postemergence greenhouse test; assay type: in vivo, Digitaria sanguinalis; settings: for Crabgrass, Large plant response rating: 0 to 100 scale; for Plant response rating, Crabgrass, Large: 0 to 100 scale where 0 is no effect and 100 is complete control
Method in brief: as §1

barnyardgrass [2] = assay: Test C flooded paddy test; assay type: in vivo, Echinochloa crus-galli; settings: Flood
Method in brief: as §2

[3] = Postemergence, 125 g ai/ha, 0 is no effect, 100 is complete control
[4] = Postemergence, 500 g ai/ha, 0 is no effect, 100 is complete control
[5] = Preemergence, 125 g ai/ha, 0 no effect, 100 complete control
[6] = 31 g ai/ha, scale 0 to 100 (0 no effect, 100 complete control)
[7] = 62 g ai/ha, scale 0 to 100, 0 no effect, 100 complete control, 13 to 15 days
[8] = 125 g ai/ha, scale 0 to 100, 0 no effect, 100 complete control, 13 to 15 days
[9] = 250 g ai/ha, scale 0 to 100 (0 no effect, 100 complete control)
[10] = 250 g ai/ha, scale 0 to 100, 0 no effect, 100 complete control, 13 to 15 days
[11] = Preemergence, 500 g ai/ha, 0 no effect, 100 complete control
[12] = 62 g ai/ha, scale 0 to 100 (0 no effect, 100 complete control)

CC(c1c(C(F)(F)F)nn(C)c1Cl)[S+]([O-])c1cccc[n+]1[O-] (mixture of isomers) [Compound 27]
20: Morningglory plant response rating (morningglory; [4]) | Velvetleaf plant response rating (velvetleaf; [5]) | Plant response rating, Velvetleaf (velvetleaf; Preemergence, 500 g ai/ha) | Barnyardgrass plant response rating (barnyardgrass [1]; [3]) | Wheat plant response rating (wheat; [5]) | Corn plant response rating (corn; [4])
30: Plant response rating, Wheat (wheat; Preemergence, 500 g ai/ha) | Foxtail, Giant plant response rating (giant foxtail; [5])
80: Plant response rating, Foxtail, Giant (giant foxtail; Preemergence, 500 g ai/ha) | Plant response rating, Crabgrass, Large (crabgrass; Preemergence, 500 g ai/ha)
10: Pigweed plant response rating (redroot pigweed; [4])
50: Barnyardgrass plant response rating (barnyardgrass [1]; [4])
70: Plant response rating, Barnyardgrass (barnyardgrass [1]; Preemergence, 500 g ai/ha)
0: Morningglory plant response rating (morningglory; [3]) | Morningglory plant response rating (morningglory; [5]) | Plant response rating, Morningglory (morningglory; Preemergence, 500 g ai/ha) | Velvetleaf plant response rating (velvetleaf; [3]) | Velvetleaf plant response rating (velvetleaf; [4]) | Plant response rating, Rice (rice; [6]) | Plant response rating, Rice (rice; [7]) | Plant response rating, Rice (rice; [8]) | Plant response rating, Rice (rice; [9]) | Barnyardgrass plant response rating (barnyardgrass [1]; [5]) | Pigweed plant response rating (redroot pigweed; [3]) | Pigweed plant response rating (redroot pigweed; [5]) | Plant response rating, Pigweed (redroot pigweed; Preemergence, 500 g ai/ha) | Wheat plant response rating (wheat; [3]) | Wheat plant response rating (wheat; [4]) | Corn plant response rating (corn; [3]) | Corn plant response rating (corn; [5]) | Plant response rating, Corn (corn; Preemergence, 500 g ai/ha) | Plant response rating, Sedge, Umbrella (umbrella sedge; [6]) | Plant response rating, Sedge, Umbrella (umbrella sedge; [7]) | Plant response rating, Sedge, Umbrella (umbrella sedge; [8]) | Plant response rating, Sedge, Umbrella (umbrella sedge; [10]) | Plant response rating, Ducksalad (duck salad; [6]) | Plant response rating, Ducksalad (duck salad; [7]) | Plant response rating, Ducksalad (duck salad; [8]) | Plant response rating, Ducksalad (duck salad; [9]) | Foxtail, Giant plant response rating (giant foxtail; [3]) | Crabgrass, Large plant response rating (crabgrass; [3]) | Plant response rating, Barnyardgrass (barnyardgrass [2]; [6]) | Plant response rating, Barnyardgrass (barnyardgrass [2]; [7]) | Plant response rating, Barnyardgrass (barnyardgrass [2]; [8]) | Plant response rating, Barnyardgrass (barnyardgrass [2]; [9])
40: Crabgrass, Large plant response rating (crabgrass; [4]) | Crabgrass, Large plant response rating (crabgrass; [5])
60: Foxtail, Giant plant response rating (giant foxtail; [4])

Cn1nc(C(F)(F)F)c(CS(=O)(=O)c2ccc(F)c[n+]2[O-])c1OCC(F)(F)F [Compound 106]
15: Plant response rating, Barnyardgrass (barnyardgrass [2]; [8])
10: Morningglory plant response rating (morningglory; [5])
25: Plant response rating, Rice (rice; [10])
30: Morningglory plant response rating (morningglory; [4]) | Plant response rating, Sedge, Umbrella (umbrella sedge; [10]) | Plant response rating, Crabgrass, Large (crabgrass; Postemergence, 125 g ai/ha)
60: Velvetleaf plant response rating (velvetleaf; [11]) | Plant response rating, Ducksalad (duck salad; [8]) | Crabgrass, Large plant response rating (crabgrass; [5])
80: Pigweed plant response rating (redroot pigweed; [11]) | Plant response rating, Ducksalad (duck salad; [10]) | Foxtail, Giant plant response rating (giant foxtail; [4]) | Foxtail, Giant plant response rating (giant foxtail; [11]) | Crabgrass, Large plant response rating (crabgrass; [4]) | Crabgrass, Large plant response rating (crabgrass; [11])
90: Barnyardgrass plant response rating (barnyardgrass [1]; [11])
20: Velvetleaf plant response rating (velvetleaf; [4]) | Plant response rating, Rice (rice; [8]) | Plant response rating, Barnyardgrass (barnyardgrass [2]; [10])
70: Barnyardgrass plant response rating (barnyardgrass [1]; [4]) | Pigweed plant response rating (redroot pigweed; [5])
40: Plant response rating, Barnyardgrass (barnyardgrass [1]; Postemergence, 125 g ai/ha) | Barnyardgrass plant response rating (barnyardgrass [1]; [5]) | Foxtail, Giant plant response rating (giant foxtail; [5])
50: Morningglory plant response rating (morningglory; [11]) | Pigweed plant response rating (redroot pigweed; [4]) | Plant response rating, Ducksalad (duck salad; [12]) | Plant response rating, Foxtail, Giant (giant foxtail; Postemergence, 125 g ai/ha)
0: Plant response rating, Morningglory (morningglory; Postemergence, 125 g ai/ha) | Plant response rating, Velvetleaf (velvetleaf; Postemergence, 125 g ai/ha) | Velvetleaf plant response rating (velvetleaf; [5]) | Plant response rating, Rice (rice; [6]) | Plant response rating, Rice (rice; [12]) | Plant response rating, Pigweed (redroot pigweed; Postemergence, 125 g ai/ha) | Plant response rating, Wheat (wheat; Postemergence, 125 g ai/ha) | Wheat plant response rating (wheat; [4]) | Wheat plant response rating (wheat; [5]) | Wheat plant response rating (wheat; [11]) | Plant response rating, Corn (corn; Postemergence, 125 g ai/ha) | Corn plant response rating (corn; [4]) | Corn plant response rating (corn; [5]) | Corn plant response rating (corn; [11]) | Plant response rating, Sedge, Umbrella (umbrella sedge; [6]) | Plant response rating, Sedge, Umbrella (umbrella sedge; [12]) | Plant response rating, Sedge, Umbrella (umbrella sedge; [8]) | Plant response rating, Ducksalad (duck salad; [6]) | Plant response rating, Barnyardgrass (barnyardgrass [2]; [6]) | Plant response rating, Barnyardgrass (barnyardgrass [2]; [12])
